Reference: patent US20240041877A1, “DOSAGE REGIME AND METHOD FOR TREATING PULMONARY ARTERIAL HYPERTENSION” (Altavant Sciences GmbH, priority 2019, published 2024)

Assay: Study KAR5585-101 Part 1 (SAD): plasma pharmacokinetics after a single oral dose of KAR5585, fasting and fed (incl. dose proportionality and food effect)
Conditions: for AUC / AUC(0-inf) / concentration at 12 h / Cmax / Vd/F / half-life / Tmax: human, plasma, po; for AUC: AUC0-tau; for AUC(0-inf): AUC0-∞; for Vd/F: Vz/F
[1] = 400 mg, 400 mg KAR5585 single oral, fasted, Cohort 3A, Mean
[2] = 400 mg, 400 mg KAR5585 single oral, fed, Cohort 3B, Geo. Mean
[3] = 400 mg, 400 mg KAR5585 single oral, fed, Cohort 3B, Mean
[4] = 400 mg, Geometric Mean, Cohort 3A (Fasting), 400 mg KAR5585 single oral dose, fasting
[5] = 400 mg, Geometric Mean, Cohort 3B (Fed), 400 mg KAR5585 single oral dose, fed
[6] = 400 mg, 400 mg KAR5585 single oral, fasted, Cohort 3A, Geo. Mean
[7] = 700 mg, 700 mg KAR5585 single oral, fasted, Cohort 4, Geo. Mean
[8] = 700 mg, 700 mg KAR5585 single oral, fasted, Cohort 4, Mean
[9] = 1200 mg, 1200 mg KAR5585 single oral, fasted, Cohort 5, Geo. Mean
[10] = 1200 mg, 1200 mg KAR5585 single oral, fasted, Cohort 5, Mean
[11] = 2000 mg, 2000 mg KAR5585 single oral, fasted, Cohort 6, Geo. Mean
[12] = 2000 mg, 2000 mg KAR5585 single oral, fasted, Cohort 6, Mean

Method: Food effect was to be evaluated in Part 1, Period 2. Part 2 was permitted to begin before Part 1 was completed and, in each part, the data from each dose Cohort were to be reviewed for safety before the next dose Cohort was enrolled.
Part 1 had 6 Cohorts of 12 subjects each (for a total of 72 subjects) and Part 2 had 4 Cohorts of 12 subjects each (for a total of 48 subjects). In Part 1, the 12 subjects in Cohort 3 (400 mg)were studied twice, once under fasting conditions (Period 1) and once under fed conditions (Period 2) for food-effect assessment.
Pharmacokinetic data were to be summarized descriptively.

SMILES: CCOC(=O)[C@@H]1CC2(CCN(c3cc(O[C@H](c4ccc(Cl)cc4-c4ccccc4)C(F)(F)F)nc(N)n3)CC2)CN1 [KAR5585, (S)-ethyl 8-(2-amino-6-((R)-1-(5-chloro-[1,1′-biphenyl]-2-yl)-2,2,2-trifluoroethoxy)pyrimidin-4-yl)-2,8-diazaspiro[4.5]decane-3-carboxylate]
- AUC [1]: 219 ng·h/mL
- AUC [2]: 854 ng·h/mL
- AUC [3]: 868 ng·h/mL
- AUC [4]: 176 ng·h/mL
- AUC [5]: 854 ng·h/mL
- AUC(0-inf) [6]: 288 ng·h/mL
- AUC(0-inf) [1]: 302 ng·h/mL
- AUC(0-inf) [2]: 903 ng·h/mL
- AUC(0-inf) [3]: 915 ng·h/mL
- concentration at 12 h (400 mg, C12, 400 mg KAR5585 single oral, fasted, Cohort 3A, Geo. Mean): 7.4 ng/mL
- concentration at 12 h (400 mg, C12, 400 mg KAR5585 single oral, fasted, Cohort 3A, Mean): 7.45 ng/mL
- concentration at 12 h (400 mg, C12, 400 mg KAR5585 single oral, fed, Cohort 3B, Geo. Mean): 19.7 ng/mL
- concentration at 12 h (400 mg, C12, 400 mg KAR5585 single oral, fed, Cohort 3B, Mean): 21 ng/mL
- Cmax [6]: 42 ng/mL
- Cmax [1]: 52.8 ng/mL
- Cmax [2]: 165 ng/mL
- Cmax [3]: 169 ng/mL
- Cmax [4]: 42 ng/mL
- Cmax [5]: 165 ng/mL
- Vd/F [6]: 8100 L
- Vd/F [1]: 8330 L
- Vd/F [2]: 2730 L
- Vd/F [3]: 2780 L
- half-life (400 mg, t1 (t½, apparent terminal half-life), 400 mg KAR5585 single oral, fasted, Cohort 3A, Geo. Mean): 242 min
- half-life (400 mg, t1 (t½, apparent terminal half-life), 400 mg KAR5585 single oral, fasted, Cohort 3A, Mean): 245 min
- half-life (400 mg, t1 (t½, apparent terminal half-life), 400 mg KAR5585 single oral, fed, Cohort 3B, Geo. Mean): 256 min
- half-life (400 mg, t1 (t½, apparent terminal half-life), 400 mg KAR5585 single oral, fed, Cohort 3B, Mean): 267 min
- Tmax (400 mg, tmax, 400 mg KAR5585 single oral, fasted, Cohort 3A, Median): 2.07 h
- Tmax (400 mg, tmax, 400 mg KAR5585 single oral, fed, Cohort 3B, Median): 3 h
- AUC [7]: 362 ng·h/mL
- AUC [8]: 386 ng·h/mL
- AUC(0-inf) [7]: 412 ng·h/mL
- AUC(0-inf) [8]: 436 ng·h/mL
- concentration at 12 h (700 mg, C12, 700 mg KAR5585 single oral, fasted, Cohort 4, Geo. Mean): 9.84 ng/mL
- concentration at 12 h (700 mg, C12, 700 mg KAR5585 single oral, fasted, Cohort 4, Mean): 10.7 ng/mL
- Cmax [7]: 95.2 ng/mL
- Cmax [8]: 99.4 ng/mL
- Vd/F [7]: 8390 L
- Vd/F [8]: 9120 L
- half-life (700 mg, t1 (t½, apparent terminal half-life), 700 mg KAR5585 single oral, fasted, Cohort 4, Geo. Mean): 205 min
- half-life (700 mg, t1 (t½, apparent terminal half-life), 700 mg KAR5585 single oral, fasted, Cohort 4, Mean): 208 min
- Tmax (700 mg, tmax, 700 mg KAR5585 single oral, fasted, Cohort 4, Median): 1.75 h
- AUC [9]: 296 ng·h/mL
- AUC [10]: 364 ng·h/mL
- AUC(0-inf) [9]: 406 ng·h/mL
- AUC(0-inf) [10]: 462 ng·h/mL
- concentration at 12 h (1200 mg, C12, 1200 mg KAR5585 single oral, fasted, Cohort 5, Geo. Mean): 11 ng/mL
- concentration at 12 h (1200 mg, C12, 1200 mg KAR5585 single oral, fasted, Cohort 5, Mean): 11.8 ng/mL
- Cmax [9]: 68.1 ng/mL
- Cmax [10]: 83 ng/mL
- Vd/F [9]: 14500 L
- Vd/F [10]: 16900 L
- half-life (1200 mg, t1 (t½, apparent terminal half-life), 1200 mg KAR5585 single oral, fasted, Cohort 5, Geo. Mean): 204 min
- half-life (1200 mg, t1 (t½, apparent terminal half-life), 1200 mg KAR5585 single oral, fasted, Cohort 5, Mean): 215 min
- Tmax (1200 mg, tmax, 1200 mg KAR5585 single oral, fasted, Cohort 5, Median): 2 h
- AUC [11]: 638 ng·h/mL
- AUC [12]: 773 ng·h/mL
- AUC(0-inf) [11]: 667 ng·h/mL
- AUC(0-inf) [12]: 778 ng·h/mL
- concentration at 12 h (2000 mg, C12, 2000 mg KAR5585 single oral, fasted, Cohort 6, Geo. Mean): 26.2 ng/mL
- concentration at 12 h (2000 mg, C12, 2000 mg KAR5585 single oral, fasted, Cohort 6, Mean): 37.4 ng/mL
- Cmax [11]: 95.1 ng/mL
- Cmax [12]: 104 ng/mL
- Vd/F [11]: 20600 L
- Vd/F [12]: 25100 L
- half-life (2000 mg, t1 (t½, apparent terminal half-life), 2000 mg KAR5585 single oral, fasted, Cohort 6, Geo. Mean): 286 min
- half-life (2000 mg, t1 (t½, apparent terminal half-life), 2000 mg KAR5585 single oral, fasted, Cohort 6, Mean): 290 min
- Tmax (2000 mg, tmax, 2000 mg KAR5585 single oral, fasted, Cohort 6, Median): 2 h
- Vd/F (range across dose levels, single oral KAR5585): 5680 to 25100 L
- half-life (mean apparent elimination half-life, range across dose levels, single oral KAR5585 100-2000 mg): 113 to 290 min
- Tmax (median tmax, range across cohorts, single oral 100-2000 mg KAR5585, fasting cohorts): 1.5 to 3 h
- time concentrations remained above the LLOQ (single 100 mg KAR5585, fasting): up to 4 hours
- time concentrations remained above the LLOQ (single 200 mg KAR5585, fasting): up to 12 hours
- time concentrations remained above the LLOQ (single 700 mg KAR5585, fasting): up to 12 hours
- time concentrations remained above the LLOQ (single 1200 mg KAR5585, fasting): up to 12 hours
- dose proportionality of AUC0-inf and Cmax (power model, 95% CI of slope) (single dose range 100 to 2000 mg KAR5585, fasting): dose proportionality was not concluded
